# Assay results reported in ChEMBL document CHEMBL3714727, “Novel dihydropyrimidinoisoquinolinones and pharmaceutical compositions thereof for the treatment of inflammatory disorders (gpr84 antagonists)” (2014).
# Molecular target: T1, G-protein coupled receptor 84 (Homo sapiens, UniProt Q9NQS5)
# Experiment: Antagonist activity against GPR84 (unknown origin) expressed in cell membranes assessed as inhibition of 3,3'-di-indolylmethane-induced [35S]GTPgammaS binding treated for 90 mins after 3,3'-di-indolylmethane stimulation in buffer containing 20 mM Tris at pH 7.5 by top-count assay
# Assay type: functional
# T1 sequence (Q9NQS5 whole entry): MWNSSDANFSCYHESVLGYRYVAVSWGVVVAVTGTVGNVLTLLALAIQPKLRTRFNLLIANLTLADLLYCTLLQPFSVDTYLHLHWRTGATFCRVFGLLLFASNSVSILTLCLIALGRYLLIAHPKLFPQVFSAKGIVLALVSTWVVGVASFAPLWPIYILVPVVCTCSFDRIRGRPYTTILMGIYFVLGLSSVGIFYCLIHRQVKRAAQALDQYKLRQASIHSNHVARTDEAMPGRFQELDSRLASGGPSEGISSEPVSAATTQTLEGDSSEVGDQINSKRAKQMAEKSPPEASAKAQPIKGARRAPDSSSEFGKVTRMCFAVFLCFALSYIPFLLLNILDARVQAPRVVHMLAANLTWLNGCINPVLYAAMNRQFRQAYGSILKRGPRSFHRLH
row,IC50 [nM],SMILES
1,> 1000,CN(C)C(=O)c1cccc(-c2ccc3c(c2)CCn2c-3cc(OCC3CCCO3)nc2=O)c1 (centres undefined)
2,> 1000,CC(C)(C)OC(=O)n1cccc1-c1ccc2c(c1)CCn1c-2cc(OCC2CCCO2)nc1=O (centres undefined)
3,> 1000,Cc1cccc(C)c1-c1ccc2c(c1)CCn1c-2cc(OCC2CCCO2)nc1=O (centres undefined)
4,> 1000,O=c1nc(OCC2CCCO2)cc2n1CCc1cc(-c3cncnc3)ccc1-2 (centres undefined)

# Molecular target: T1, G-protein coupled receptor 84
# Experiment: Antagonist activity against GPR84 (unknown origin) expressed in cell membranes assessed as inhibition of 3,3'-di-indolylmethane-induced [35S]GTPgammaS binding treated for 90 mins after 3,3'-di-indolylmethane stimulation in buffer containing 20 mM HEPES at pH 7.4 by top-count assay
# Assay type: functional
row,SMILES,IC50 [nM]
1,O=c1nc(OCC2CCCO2)cc2n1CCc1cc(OCc3cccc(-c4cncnc4)n3)ccc1-2 (centres undefined),≤ 500
2,O=c1nc(OCC2CCCO2)cc2n1CCc1cc(OCC3COc4ccccc4O3)ccc1-2 (centres undefined),≤ 100
3,NC(=O)COc1ccc2c(c1)CCn1c-2cc(OCC2CCCO2)nc1=O (centres undefined),> 1000
4,CC1(COCc2ccc3c(c2)CCn2c-3cc(OCC3COc4ncccc4O3)nc2=O)COC1 (centres undefined),≤ 100
5,C=CCOc1ccc2c(c1)CCn1c-2cc(OCC2CCCO2)nc1=O (centres undefined),> 1000
6,O=C(O)c1ccc(-c2ccc3c(c2)CCn2c-3cc(OCC3CCCO3)nc2=O)cc1 (centres undefined),> 1000
7,CC(C)(O)C#Cc1ccc2c(c1)CCn1c-2cc(OCC2COc3ncccc3O2)nc1=O (centres undefined),≤ 100
8,O=c1nc(OCC2CCCO2)cc2n1CCc1cc(O)ccc1-2 (centres undefined),> 1000
9,O=c1nc(OCC2CCCO2)cc2n1CCc1cc(OCc3cccc(-c4ccccc4)n3)ccc1-2 (centres undefined),> 1000
10,O=c1nc(OCC2COc3ncccc3O2)cc2n1CCc1cc(OCc3ccccn3)ccc1-2 (centres undefined),≤ 100
11,O=c1nc(OCC2COc3ncccc3O2)cc2n1CCc1cc(COCCN3CCOCC3)ccc1-2 (centres undefined),≤ 100
12,Cn1cc(-c2ccc3c(c2)CCn2c-3cc(OCC3CCCO3)nc2=O)cn1 (centres undefined),> 1000
13,N#Cc1ccc(-c2ccc3c(c2)CCn2c-3cc(OCC3CCCO3)nc2=O)cc1 (centres undefined),> 1000
14,O=c1nc(OCC2CCCO2)cc2n1CCc1cc(OCc3cccc([N+](=O)[O-])c3)ccc1-2 (centres undefined),≤ 100
15,O=c1nc(OCC2COc3ncccc3O2)cc2n1CCc1cc(-c3cn[nH]c3)ccc1-2 (centres undefined),≤ 100
16,CCN(CC)C(=O)COc1ccc2c(c1)CCn1c-2cc(OCC2CCCO2)nc1=O (centres undefined),> 1000
17,O=c1nc(OCC2COc3ncccc3O2)cc2n1CCc1cc(C#CCNCc3ccccc3)ccc1-2 (centres undefined),≤ 100
18,CC(C)C(O)C#Cc1ccc2c(c1)CCn1c-2cc(OCC2COc3ncccc3O2)nc1=O (centres undefined),≤ 100
19,CCCC(O)C#Cc1ccc2c(c1)CCn1c-2cc(OCC2COc3ncccc3O2)nc1=O (centres undefined),≤ 100
20,O=c1nc(OCC2COc3ncccc3O2)cc2n1CCc1cc(CN3CCCCC3)ccc1-2 (centres undefined),≤ 100
21,O=c1nc(OCC2CCCO2)cc2n1CCc1cc(OCCOc3ccccc3)ccc1-2 (centres undefined),≤ 100
22,N#CCOc1ccc2c(c1)CCn1c-2cc(OCC2CCCO2)nc1=O (centres undefined),> 1000
23,O=c1nc(OCC2COc3ncccc3O2)cc2n1CCc1cc(OCc3nnn[nH]3)ccc1-2 (centres undefined),≤ 100
24,"O=c1nc(OCC2COc3ncccc3O2)cc2n1CCc1cc(OCc3ncco3)ccc1-2 (single isomer, unassigned)",≤ 100

# Second part, the molecule after the results:
row,IC50 [nM],SMILES
1,> 1000,CC(C)N(C)C(=O)COc1ccc2c(c1)CCn1c-2cc(OCC2CCCO2)nc1=O (centres undefined)
2,> 1000,CC(C)(C)NCc1ccc2c(c1)CCn1c-2cc(OCC2COc3ncccc3O2)nc1=O (centres undefined)
3,≤ 100,N#CCOc1ccc2c(c1)CCn1c-2cc(OCC2COc3ncccc3O2)nc1=O (centres undefined)
4,> 1000,CN(C)C(=O)COc1ccc2c(c1)CCn1c-2cc(OCC2CCCO2)nc1=O (centres undefined)
5,> 1000,COc1ccc2c(c1)CCn1c-2cc(OCC2CCc3ccccc3O2)nc1=O (centres undefined)
6,≤ 100,COc1ccc(COc2ccc3c(c2)CCn2c-3cc(OCC3CCCO3)nc2=O)cc1 (centres undefined)
7,≤ 100,CCC(O)C#Cc1ccc2c(c1)CCn1c-2cc(OCC2COc3ncccc3O2)nc1=O (centres undefined)
8,> 1000,O=C(NCC1COC1)c1ccc2c(c1)CCn1c-2cc(OCC2COc3ncccc3O2)nc1=O (centres undefined)
9,≤ 100,O=c1nc(OCC2COc3ncccc3O2)cc2n1CCc1cc(COC3COC3)ccc1-2 (centres undefined)
10,≤ 100,O=c1nc(OCC2COc3ccccc3O2)cc2n1CCc1cc(OCc3nnn[nH]3)ccc1-2 (centres undefined)
11,≤ 100,CC(O)C#Cc1ccc2c(c1)CCn1c-2cc(OCC2COc3ncccc3O2)nc1=O (centres undefined)
